Where two headings read alike, the source gives them in different places. No end group written: not given here.
Assays:
[1] = system: cap-dependent translation (eIF4E-dependent); assay: Effect of the peptides on translation of capped luciferase mRNA in rabbit reticulocyte lysate; assay type: biochemical; conditions: 50 μM peptide, compared with DMSO = 100%; FIG. 2
Description: The peptides having the IRS motif and the sequences of 4EBPlike type (A1WT, BPSgWT, and BP2WT) or the mutant sequences of 4EPBlike type (A1YALA, BPSgYALA, BP2YALA) are incubated in rabbit reticulocyte lysate containing capped mRNAs encoding luciferase, an enzyme of which the activity can be easily assayed. The translational activity is directly proportional to the activity of the luciferase produced. The translational activity in the presence of peptide is compared with that obtained during the addition of an equivalent volume of DMSO, considered to be 100%.
The peptides were produced, purified by HPLC (purity>95%), and freeze-dried by Thermofisher Scientific. The peptides were then dissolved at 10 mM in DMSO.
The capped mRNAs encoding Renilla luciferase (Luc R) were produced by the T7 Message Machine Kit system (Ambion) from the pGb-Eg2-410Δ2-hxG-A65 plasmid linearized with EcoRV (Legagneux V, Omilli F, Osborne HB (1995) Substrate-specific regulation of RNA deadenylation in Xenopus embryo and activated egg extracts. RNA 1: 1001-1008).
The Luc R mRNAs were translated for one hour at 30° C. in rabbit reticulocyte lysate (Flexi Rabbit Reticulocyte Lysate System, Promega) in the presence of 50 μM of peptide. The luciferase activity was determined using the Renilla luciferase assay (Promega) on the Tristar LB941 luminometer (Berthold).
A capped mRNA (having a cap at the 5′ end) encoding luciferase, a protein which can be easily assayed by measuring its activity, was translated in the presence of these various peptides in rabbit reticulocyte lysate (FIG. 2). The luciferase activity measured is directly proportional to the amount of luciferase protein produced and therefore to the cap-dependent translational activity. Since the peptides are dissolved in DMSO, it was important to test the effect of DMSO on the translation. […] The translational activity in the presence of peptide was compared with that obtained when an equal volume of DMSO is added, considered to be equal to 100%.

[2] = system: B lymphocytes from patients suffering from chronic lymphoid leukemia (CLL); conditions: for IC50: read-out: IC50 (concentration of peptide causing the death of 50% of the cells), after 24 H
Description: Peripheral blood B lymphocytes taken from patients suffering from CLL and then purified on a Ficoll cushion and placed in culture are incubated in the presence of […] of the peptides described for FIG. 2. The percentage cell survival after 4 hours (gray column) or 24 hours (white column) of culture corresponds to the percentage of cells labeled neither with annexin nor with propidium iodide, evaluated by flow cytometry.
The CLL B lymphocytes were obtained from peripheral blood of 18 different patients suffering from chronic lymphoid leukemia. […] The samples were taken in the Brest hospital center, in the hematology department. The blood samples were taken after informing the patients and obtaining their informed consent.
The lymphocytes, mononuclear cells, were isolated from the heparinized peripheral blood samples by Ficoll-Hypaque (LSM 1077 lymphocyte, euro-bio) centrifugation. The red blood cells were lyzed by incubation for 10 min in VersaLyse Lysing Solution (Beckman Coulter). The mononuclear cells are obtained after 2 washes in culture medium (RPMI1640, Gibco BRL).
(§1) The cells were cultured in a culture medium composed either of RPMI 1640 (B lymphocytes) or of DMEM (COS7, HCT116, HGT1, 293, HeLa) containing 10% of FCS (fetal calf serum, 1% of penicillin-streptomycin and 1% of glutamine, Gibco BRL). The cells are distributed in a 24-well plate and cultured at 37° C. in a humid atmosphere under 5% CO2.
(§2) 400 μl of cell suspension (1×10^6 cells/ml) per well were treated for 4 h or 24 h with various concentrations of peptides. The test for activity of the peptides in the presence of emetine (FIG. 6) was carried out by preincubating the cells with 100 μM of emetine for one hour before the addition of peptide.
(§3) After the cells have been washed with PBS, they were analyzed using the Annexin V-FITC IP system according to the supplier's recommendations (Beckman Coulter).
The cells taken from patients suffering from chronic lymphoid leukemia were purified on a Ficoll cushion. […] The cells were placed in culture in RPMI medium in the presence of 10% FCS (fetal calf serum). The peptides were added directly to the culture medium. These peptides comprise the IRS sequence (the amino acid sequence of which is RYIRS) which is known to allow the penetration of peptides into B lymphocytes in culture (Dong et al., 2005). […] The cells which survive the treatment are those which are labeled neither with annexin nor with propidium iodide.

[3] = system: B-cell prolymphocytic leukemia cells; assay type: cell-based, human; conditions: 24 h
Description: (§4) FIG. 7: Activity of the A1WT peptide on cells of lymphocytic, lymphoid, gastric, colonic or renal origin The cells are prepared and placed in culture (see Materials and Methods) and then incubated for 4 H with the A1WT or A1 YALA peptide. The percentage cell survival corresponds to the percentage of cells labeled neither with annexin nor with propidium iodide, evaluated by flow cytometry. The names of the pathological conditions from which the patients from whom the samples are taken are suffering are indicated under the figure. The control T (L.T.) and B (L.B.) lymphocytes are taken from patients suffering from a disease not related to a lymphocytic pathological condition (hemochromatosis).
as §1, §2, §3
(§5) The cells of lymphoid origin all originated from samples taken from patients suffering from various pathological conditions classified according to the seat of the tumor proliferation. This proliferation takes place either in the bone marrow, for CLL, B-cell prolymphocytic leukemia and T-cell acute lymphoblastic leukemia (T-ALL); or in the lymph nodes for mantle cell lymphoma and marginal zone lymphoma. A classification can also be carried out according to the cell type affected: B lymphocytes (CLL, B-cell prolymphocytic leukemia, mantle cell lymphoma and marginal zone lymphoma) or T lymphocytes (T-ALL).

[4] = system: T lymphocytes from a patient suffering from T-cell acute lymphoblastic leukemia (T-ALL); assay type: cell-based, human; conditions: FIG. 7, 4 H incubation
Description: as §4, §1, §2, §3, §5

[5] = system: mantle cell lymphoma cells; assay type: cell-based, human; conditions: 4 h, 40 μM
Description: as §4, §1, §2, §3, §5

[6] = system: marginal zone lymphoma (MZL) cells; assay type: cell-based, human; conditions: 4 h, 40 μM
Description: as §4, §1, §2, §3, §5

[7] = system: acute myeloid leukemia (AML) cells; assay type: cell-based, human; conditions: 4 h, 40 μM
Description: as §4, §1
400 μl of cell suspension (1×10^6 cells/ml) per well were treated for 4 h or 24 h with various concentrations of peptides. […]
After the cells have been washed with PBS, they were analyzed using the Annexin V-FITC IP system according to the supplier's recommendations (Beckman Coulter). […]

RRKYGRDFLLRFRYIRS [A1 WT IRS, RRKYGRDFLLRFRYIRS]
inhibition of translation (luciferase activity) [1]: more substantially inhibits the translation
cell survival, peptide in the presence of emetine ([2]; 40 μM peptide after 1 h preincubation with 100 μM emetine, 4 H (from 97%), FIG. 6): 27%
cell effect CLL 40 (survival) ([2]; 40 μM peptide, 4 hours of culture, cells not labeled with annexin or propidium iodide): + (+: survival <25%)
change of the effect on survival over time ([2]; 40 μM, 1 H, 2 H, 4 H and 24 H, FIG. 4): no longer active after 4 H of incubation
effect of the peptide on cell mortality, in words (relative to A1 WT IRS) ([2]; 40 μM, 4 hours, FIG. 9): high cell mortality
cell survival rate compared with cells incubated without peptide ([2]; 4 H of incubation with 20 μM of peptide, FIG. 8): less than 65%
IC50 ([2]; batch of cells from a second patient): 24 µM
IC50 ([2]; first patient, FIG. 5): ~28 µM
cell survival [3]: 20%
effect on cell survival [4]: as great as for the CLL cells
survival rate [5]: approximately 30%
survival rate [6]: approximately 30%
survival rate [7]: 38%
